The values that follow come from US10292949B2, “Pharmaceutical composition comprising rimeporide for treating diseases associated with insulin resistance and β-cell dysfunction” (Merck Patent GmbH, priority 2008, dated 2019).

Assay type in all cases: in vivo, rat
The nature of data set [1]: Pharmacological Study Report I: body weight of ZF (fa/fa) rats during 4 weeks of treatment. The conditions noted are these: age 8-12 weeks, Compound A 150 mg/kg gavage twice daily, Compound B 40 mg/kg/day in chow. As for the experimental part:
(§1) Obese, insulin resistant ZF (fa/fa) rats, which are treated from the age of 8-12 weeks, were used as IR model. Rats were housed with a 12-h light/dark cycle and free access to food and water unless otherwise noted. Studies were approved by the Institutional Animal Care and Use Committee. There were a total of 18 animals in the study (8 week-old males, provided by Charles River). Animals were randomized into 3 groups (vehicle group, Compound A group, Compound B group, n=6 per group) based on random glucose level at the beginning of the study: • Group 1: ZF rats (fa/fa) (n=6), compound A (150 mg/kg via gavage) • Group 2: ZF rats (fa/fa) (n=6), compound B (40 mg/kg/day as admixture to the chow) • Group 3: ZF rats (fa/fa) (n=6), vehicle treatment (control chow, vehicle gavage)
(§2) Group 1 and 3 animals were treated with compound A or vehicle (water) for 4 weeks (from age 8-12 weeks) via oral gavage, twice daily. Chow containing compound B was fed to Group 2 ad lib. Group 1 and Group 3 were fed with chow without compound B ad lib.

In data set [2] the test system is Obese, insulin resistant ZF (fa/fa) rats. The data set can be described thus: Pharmacological Study Report I: deuterated glucose disposal test (2H-GDT). The conditions noted are these: 4 weeks, Compound A 150 mg/kg gavage twice daily. On the procedure:
as §1, §2
Rats underwent a 4 hour fast. […] At t=0, the blood glucose concentrations were determined with a glucometer, and a blood sample was obtained for determination of base line insulin and H2O^18 dilution. […]
One hundred micro liter aliquots of plasma samples inside the cape of an inverted vial were placed in a heating blocked filled with glass beads at 70° C. overnight and the water distillate inside the vial was collected. The deuterium and oxygen-18 isotope ratios of the blood of plasma samples were determined using a Thermo Finnigan High Temperature Conversion/Elemental Analyzer coupled with a Thermo Finnigan MAT 253 IRMS via a Conflo-III Interface. […] The deuterium isotope abundance is first calculated in δ 2H values relative to the international VSMOW standard, and then transformed to APE by using a calibration curve of standards with known enrichments. The ^2H2O enrichment was calculated for rats at 30 min after the glucose load. ^2H2O enrichment was converted to mmoles by multiplying enrichment by the TBW pool size and dividing by 20 (MW ^2H2O). […]

Data set [3] in a line: Pharmacological Study Report II: body weight and food intake. The conditions noted are these: for Average food consumption, Week 1 / Average food consumption, Week 2 / Average food consumption, Week 3 / Average food consumption, Week 4: fa/fa rats, average +/- SD. As for the experimental part: (§3) Thirty-six obese Zucker fa/fa and six lean Zucker fa/? male rats obtained from Charles River, were housed under normal vivarium conditions on a 12 hour light/dark cycle. The rats were kept two to a cage with food and water available ad lib, except during the weekly, 4 hour fasts. Water continued to be available during these fasts.
(§4) Compound A corresponds to Cariporide. Compound B corresponds to 2-Methyl-4,5-di-(methylsulfonyl)-benzoyl-guanidine hydrochloride hydrate. Compounds A and B were supplied in powder form by Merck Serono. Drugs were incorporated into a pelleted diet (LabDiet, 5001) by Research Diets, Inc (New Brunswick, N.J.) at concentrations of 0.44 g/kg or 0.88 g/kg of diet to yield approximate doses of 40 or 80 mg/kg. The concentration was calculated based on the assumption that a 300 g rat would eat about 30 g/d of chow. The same chow, but without drug, was fed to rats of both the lean and fa/fa control group animals.
(§5) One week prior to the start of the study, all rats were weighed. After a 4 hour fast, a blood sample was obtained for the determination of blood glucose, insulin, and glycosylated hemoglobin levels (HbA1c). Animals were then sorted on the basis of these parameters into the groups listed below. Rats were eight weeks of age at the onset of treatment.
(§6) • 1. ZF rats (fa/fa) (n=6) chow without drug • 2. ZF rats (fa/fa) (n=6) compound A (40 mg/kg/day) • 3. ZF rats (fa/fa) (n=6) compound A (80 mg/kg/day) • 4. ZF rats (fa/fa) (n=6) compound B (40 mg/kg/day) • 5. ZF rats (fa/fa) (n=6) compound B (80 mg/kg/day) • 6. lean Zucker rats (fa/?) (n=6) chow without drug Dosing Regime
(§7) Treatment appropriate chow was continuously available for 4 weeks except during scheduled 4 h fasts conducted once per week.
individual body weights were determined once per week. Average food intake per cage was also determined once per week and the individual rat consumption was calculated by dividing the cage average by 2 (rats housed 2/cage).

The next data set relates to obese Zucker fa/fa rats. The data set can be described thus: Pharmacological Study Report II: random and fasting (4 h) blood glucose and plasma insulin levels. The conditions noted are these: for Baseline Insulin (fasting) / Change in Insulin (fasting) / Week 4 Insulin (fasting): Mean ± SD; for Change in Insulin (fasting): change over the 4 week treatment period; for Week 4 Insulin (fasting): week 4 of treatment. On the procedure:
as §3, §4, §5, §6, §7
Both random and fasting (4 h) blood glucose levels were determined using a hand-held glucometer (OneTouch Ultra, Lifescan, Inc. Milapitas, Calif.) on blood obtained from tail capillary samples. Plasma insulin levels were determined by a rat specific ELISA (Ultra Sensitive Rat Insulin ELISA Kit, Crystal Chem, Inc., Chicago, Ill.). The 4 h fast period started at 9 a.m. and ended after a blood draw at 1 p.m.

Turning to `CC(C)c1ccc(C(=O)NC(=N)N)cc1S(C)(=O)=O` [Compound A, Cariporide], the “Body weight, difference among vehicle- and compound-treated groups” value in data set [1] is given as “no significant differences”. Further, the “Insulin sensitivity (% 2H2O recovery per insulin AUC), post-treatment compared to pre-treatment” value in data set [2] is listed as “no significant change”. The “Pancreatic compensation (% 2H2O recovery), before vs after treatment within group” value in data set [2] (Compound B 40 mg/kg/day in chow, 90 minute % D2O recovery) is on record as “exhibited lower pancreatic compensation post-treatment”. Also, in data set [3] (Zucker fa/fa rats, 4 weeks, 40 or 80 mg/kg in chow), the “Average weekly food intake vs chow fed fa/fa controls” value is given as “did not differ significantly”. Moreover, the entries for the “Average food consumption, Week 1” value in data set [3] (40 mg/kg in chow) and in data set [3] (80 mg/kg in chow) were 32.2 +/− 3.5 grams and 34.3 +/− 2.5 grams, respectively. Also, the entries for the “Average food consumption, Week 2” value in data set [3] (40 mg/kg in chow) and in data set [3] (80 mg/kg in chow) were 33.1 +/− 2.6 grams and 32.8 +/− 4.3 grams, respectively. Besides, the “Average food consumption, Week 3” value in data set [3] (40 mg/kg in chow) is on record as 33.9 +/− 2.4 grams; in data set [3] (80 mg/kg in chow), 32.3 +/− 4.5 grams. Further, the entries for the “Average food consumption, Week 4” value in data set [3] (40 mg/kg in chow) and in data set [3] (80 mg/kg in chow) were 34.9 +/− 2.7 grams and 30.8 +/− 5.6 grams, respectively. Further, the Fasting glucose concentration result in the data set on obese Zucker fa/fa rats (40 mg/kg, after 4 weeks of administration, 4 h fast) is “increased”. Further, the “Fasting insulin relative to the fa/fa vehicle control” value with obese Zucker fa/fa rats (80 mg/kg, 4th week of treatment) is given as “significantly decreased”. Also, the “Baseline Insulin (fasting)” value in the data set with obese Zucker fa/fa rats (40 mg/kg group) worked out at 17.6 ± 5.1 ng/mL; in the data set with obese Zucker fa/fa rats (80 mg/kg group), 15.9 ± 5.5 ng/mL. For the same molecule, the “Change in Insulin (fasting)” value is 0.6 ± 9.6 ng/mL in the data set on obese Zucker fa/fa rats (40 mg/kg) and -3.4 ± 8.2 ng/mL in the data set on obese Zucker fa/fa rats (80 mg/kg). Also, the figures for the “Week 4 Insulin (fasting)” value in the data set with obese Zucker fa/fa rats (40 mg/kg in chow) and in the data set on obese Zucker fa/fa rats (80 mg/kg in chow) were 18.2 ± 11.8 ng/mL and 12.5 ± 7.5 ng/mL, respectively.
